Data: PubChem BioAssay AID1648 (Sanford-Burnham Center for Chemical Genomics, 2009)
Active and inactive are the calls of the source. The rule behind the calls is not given here.

molecular target: Serine/threonine-protein kinase mTOR (Homo sapiens) (UniProt P42345); assay: mTOR FRB domain ligand binding – biophysical, NMR (AID 1648); settings: NMR binding to FRB domain, chemical shift
Sequence (P42345 2015-2114): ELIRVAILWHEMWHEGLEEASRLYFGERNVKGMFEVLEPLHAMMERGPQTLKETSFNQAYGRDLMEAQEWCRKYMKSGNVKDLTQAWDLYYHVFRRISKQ

| Structure (SMILES) | Kd |
| --- | --- |
| CCCCN1C(=O)N(C)C2NC(=O)NC21 (stereo not given) | > 4 mM (inactive) |
| C[C@]12CCC3C(CC[C@H]4C[C@@H](O)CC[C@]34C)C1CCC2=O (stereo not given in full) | > 4 mM (inactive) |
| Cc1cc(C)n(-c2cccc3cccnc23)n1 | > 4 mM (inactive) |
| O=C(O)CN1CCNCC1 | > 4 mM (inactive) |
| CC(=O)Nc1ccc(C)cc1NC(C)=O | > 4 mM (inactive) |
| O=C(Nc1nncs1)C1(c2ccccc2)CCCC1 | > 4 mM (inactive) |
| COc1ccc(NC(=O)CSc2nccc(=O)[nH]2)cc1 | > 4 mM (inactive) |
| Cc1csc(SCC(=O)N2CCCC2)n1 | > 4 mM (inactive) |
| CC(=O)Nc1ccc2c(c1)CCCC2=O | > 4 mM (inactive) |
| O=C(NC1=NCCS1)c1csc2ccccc12 | > 4 mM (inactive) |
| CSc1nnc(-c2ccccc2NC(C)=O)o1 | > 4 mM (inactive) |
| NC(=O)CSc1ccc2nnc(-c3ccccc3)n2n1 | > 4 mM (inactive) |
| Nc1cccnc1N1CCOCC1 | > 4 mM (inactive) |
| CC1(C)CC[C@]2(C)CC[C@]3(C)C(=CCC4[C@@]5(C)CC[C@H](O)C(C)(C)C5CC[C@]43C)C2C1 (stereo not given in full) | > 4 mM (inactive) |
| CCc1noc(C)c1C(=O)Nc1ncc(C)s1 | > 4 mM (inactive) |
| Cc1cc(O)c(C)c(O)c1C(=O)O | > 4 mM (inactive) |
| C=C(C)C1(O)OC(=O)C=C1OC (stereo not given) | > 4 mM (inactive) |
| CC[C@H]1CN2CCc3cc(OC)c(OC)cc3C2C[C@@H]1CC1NCCc2cc(OC)c(OC)cc21 (stereo not given in full) | > 4 mM (inactive) |
| O=C1C2CC=CCC2C(=O)N1c1cccc(O)c1 (stereo not given) | > 4 mM (inactive) |
| Cc1cc(=O)n(CC(C)C)c(O)c1C#N | > 4 mM (inactive) |
| COc1cc(-c2csc(C)n2)ccc1O | > 4 mM (inactive) |
| Cc1nn2c(nc1=O)SCC2(O)c1ccccc1 (stereo not given) | > 4 mM (inactive) |
| CN(C)S(=O)(=O)NCc1ccc2c(c1)OCO2 | > 4 mM (inactive) |
| O=C(O)CNC(=O)c1ccc([N+](=O)[O-])cc1 | > 4 mM (inactive) |

| Structure (SMILES) | Kd |
| --- | --- |
| O=C(O)Cn1nnnc1-c1ccc(F)cc1 | > 4 mM (inactive) |
| Cc1cc(N2CCCC2=O)c(N)cc1N | > 4 mM (inactive) |
| CCN(CC)c1nc2n(c(=O)n1)CCO2 | > 4 mM (inactive) |
| Fc1cccc(Cl)c1CN1CCNCC1 | > 4 mM (inactive) |
| Cc1nnsc1C(=O)Nc1ccccn1 | > 4 mM (inactive) |
| Cc1cccc(-n2c(N)cc(=O)[nH]c2=S)c1C | > 4 mM (inactive) |
| CCOc1ccc(-c2n[nH]c(=S)n2C)cc1 | > 4 mM (inactive) |
| O=C(O)/C=C/C(=O)Nc1ccccc1C(F)(F)F | > 4 mM (inactive) |
| CN1C2CC(OC(=O)[C@H](CO)c3ccccc3)C[C@H]1[C@H]1OC21 (stereo not given in full) | > 4 mM (inactive) |
| O=C(O)c1onc2ccccc12 | > 4 mM (inactive) |
| Cn1nnc2cc(C(=O)Nc3cccnc3)ccc21 | > 4 mM (inactive) |
| CCOc1ccccc1C(=O)NC1=NCCS1 | > 4 mM (inactive) |
| O=C1CCNc2cc3ccccc3cc21 | > 4 mM (inactive) |
| O=C1Nc2ccc(S(=O)(=O)NCCO)c3cccc1c23 | > 4 mM (inactive) |
| CNC(=O)C1COc2ccccc2O1 (stereo not given) | > 4 mM (inactive) |
| Cc1cc(C(=O)N2CCN(c3ccccn3)CC2)no1 | > 4 mM (inactive) |
| COc1ccc(C2(C)NC(=O)NC2=O)cc1 (stereo not given) | > 4 mM (inactive) |
| O=C(Nc1nnc(-c2ccco2)o1)c1ccc([N+](=O)[O-])o1 | > 4 mM (inactive) |
| CN1CCC(O)N1C(=O)c1ccccc1O (stereo not given) | > 4 mM (inactive) |
| Nc1nc(N)nc(N2C(=O)c3ccccc3C2=O)n1 | > 4 mM (inactive) |
| NC(=O)CCn1cnc2ccccc21 | > 4 mM (inactive) |
| Nc1ncnc(NC2CCS(=O)(=O)C2)c1[N+](=O)[O-] (stereo not given) | > 4 mM (inactive) |
| OC1CC2CCC1C2 (stereo not given) | > 4 mM (inactive) |
| O=S1(=O)CCC(NCCO)C1 (stereo not given) | > 4 mM (inactive) |

| Structure (SMILES) | Kd |
| --- | --- |
| O=C(O)C1=Cc2ccccc2OC1 | > 4 mM (inactive) |
| CCOC(=O)c1c(C)nc2ncccn12 | > 4 mM (inactive) |
| CC(=O)Oc1ccc(-c2nc(-c3cccnc3)no2)cc1 | > 4 mM (inactive) |
| Cc1nn(-c2ccccc2)nc1CO | > 4 mM (inactive) |
| CCOC(=O)c1csc(N)n1 | > 4 mM (inactive) |
| c1cc(C(N2CCOCC2)N2CCOCC2)ccn1 | > 4 mM (inactive) |
| CC(C)=CC1C(CO)C1(C)C (stereo not given) | > 4 mM (inactive) |
| CC(=O)O[C@H]1CC[C@@]2(C)C(C[C@@H](OC(C)=O)[C@@]3(C)C4=CC(=O)O[C@@H](c5ccoc5)[C@]4(C)CCC23)C1(C)C (stereo not given in full) | > 4 mM (inactive) |
| Cc1nc(-c2cc(C(=O)O)no2)cs1 | > 4 mM (inactive) |
| NC1=NC(=O)C(Cc2cccc([N+](=O)[O-])c2)S1 (stereo not given) | > 4 mM (inactive) |
| NC(=O)C1(c2ccccc2)CCOCC1 | > 4 mM (inactive) |
| O=C(NCc1ccccc1Cl)c1cnn2cccnc12 | > 4 mM (inactive) |
| O=c1[nH]c(O)c(C=NCc2cccs2)c(=O)[nH]1 | > 4 mM (inactive) |
| Cc1cc([N+](=O)[O-])cc[n+]1[O-] | > 4 mM (inactive) |
| O=C1CN2C(=N1)N(Cc1ccccc1)c1ccccc12 | > 4 mM (inactive) |
| O=C1CCC(=O)N1c1ccc(O)cc1 | > 4 mM (inactive) |
| O=C1NC(=S)N/C1=C\c1ccccc1F | > 4 mM (inactive) |
| CCOC(=O)c1c[nH]c2c(F)cccc2c1=O | > 4 mM (inactive) |
| Oc1ccccc1N1CCOCC1 | > 4 mM (inactive) |
| CCNC(=S)N1CCCC(C(N)=O)C1 (stereo not given) | > 4 mM (inactive) |
| O=C1c2ccccc2C(=O)N1Cc1ccco1 | > 4 mM (inactive) |
| COC(=O)Cc1csc(N)n1 | > 4 mM (inactive) |
| COc1ccc(-c2cc(=O)c3c(O)cc(O)c(-c4cc(-c5cc(=O)c6c(O)cc(O)cc6o5)ccc4OC)c3o2)cc1 | > 4 mM (inactive) |
| COc1ccccc1-c1n[nH]c(=O)o1 | > 4 mM (inactive) |

| Structure (SMILES) | Kd |
| --- | --- |
| Cn1c([O-])c([N+](C)(C)C)c(=O)n(C)c1=O | > 4 mM (inactive) |
| OCC(O)C(O)C(O)CO (stereo not given) | > 4 mM (inactive) |
| COc1cc([C@@H]2c3cc4c(cc3[C@H](OC(C)=O)[C@H]3COC(=O)[C@H]23)OCO4)cc(OC)c1OC | > 4 mM (inactive) |
| CC(CO)NC(=O)C1C=C2c3cccc4[nH]cc(c34)C[C@H]2N(C)C1 (stereo not given in full) | > 4 mM (inactive) |
| NCc1ccccc1N1CCOCC1 | > 4 mM (inactive) |
| Cc1oc2nc3c(c(=O)[nH]c(=O)n3C)n2c1C | > 4 mM (inactive) |
| CC1CCN(C(=O)c2cc3ccccc3o2)CC1 | > 4 mM (inactive) |
| Cc1nc2sccn2c1C(=O)O | > 4 mM (inactive) |
| Nc1nc2ccc(C(=O)O)cc2s1 | > 4 mM (inactive) |
| CC1(C)C=Cc2cc3ccc(=O)oc3cc2O1 | > 4 mM (inactive) |
| COc1c2c(cc3occ(-c4ccc5c(c4)OCO5)c(=O)c13)OC(C)(C)C=C2 | > 4 mM (inactive) |
| CC(=O)NC(c1ccccc1)c1cccnc1 (stereo not given) | > 4 mM (inactive) |
| CC(=O)NC1=NN(c2ccccc2)C(=O)C1 | > 4 mM (inactive) |
| CCC(C)C(=O)O[C@@H]1C[C@@]2(C)[C@H](c3ccoc3)OC(=O)CC23OC2(C)O[C@]14[C@]1(C)[C@@H](CC(=O)OC)C5(C)CC1(O)[C@](O)(C5OC(=O)C1(C)OC1C)[C@@H](OC(C)=O)[C@]34O2 (stereo not given in full) | > 4 mM (inactive) |
| CNC(=S)Nc1ccc(OC)cc1C | > 4 mM (inactive) |
| Cn1ncc(N2CCOCC2)c(Cl)c1=O | > 4 mM (inactive) |
| COc1ccc(C2NC(C(=O)O)CS2)cc1 (stereo not given) | > 4 mM (inactive) |
| Cc1nc2ccccc2c(=O)[nH]1 | > 4 mM (inactive) |
| O=C(CSc1ncnc2ccccc12)NCCCO | > 4 mM (inactive) |
| Cc1ccc(Nc2nc(N)nc(CC#N)n2)cc1 | > 4 mM (inactive) |
| Cc1oc(S(=O)(=O)N2CCCCC2)cc1C(=O)O | > 4 mM (inactive) |
| Cn1nc(-c2cccs2)cc1N | > 4 mM (inactive) |
| O=C(Cc1cccs1)N1CCOCC1 | > 4 mM (inactive) |
| S=C(Nc1ccc2nccnc2c1)N1CCOCC1 | > 4 mM (inactive) |

| Structure (SMILES) | Kd |
| --- | --- |
| Cc1nc2[nH]onc2c2nccc(=O)c12 | > 4 mM (inactive) |
| C=CC(=O)N1CC2CC(C1)c1cccc(=O)n1C2 (stereo not given) | > 4 mM (inactive) |
| O=C1Cc2ccccc2N1c1ccccc1 | > 4 mM (inactive) |
| Cc1onc(-c2ccccc2)c1C(=O)Nc1ccncc1 | > 4 mM (inactive) |
| O=C(Nc1ccc(-c2nnco2)cc1)c1ccccc1 | > 4 mM (inactive) |
| Nc1nc2ncc(=O)[nH]c2c(=O)[nH]1 | > 4 mM (inactive) |
| COc1ccc2c(=O)c(OC)c(-c3ccccc3)oc2c1 | > 4 mM (inactive) |
| Cc1ccccc1CSc1nnc(C)n1N | > 4 mM (inactive) |
| C=CCCCCCCCCCCCc1ccco1 | > 4 mM (inactive) |
| CCOC(=O)c1cc2ccccc2oc1=O | > 4 mM (inactive) |
| Cc1oc(-c2ccccc2)cc1CO | > 4 mM (inactive) |
| CN1CCC(N(C)Cc2cccnc2)CC1 | > 4 mM (inactive) |
| N/N=C1\CCCc2c1no[n+]2[O-] | > 4 mM (inactive) |
| COC(=O)c1cncc(C(=O)OC)c1 | > 4 mM (inactive) |
| CCCCCCCCCCCCCCC(C(=O)O)C(O)(CC(=O)OC)C(=O)O (stereo not given) | > 4 mM (inactive) |
| Cc1ccccc1NS(=O)(=O)c1ccc(F)cc1 | > 4 mM (inactive) |
| Cc1cc(C(=O)NCc2ccco2)cs1 | > 4 mM (inactive) |
| COc1cc2c(cc1O)[C@@H](Cc1ccc(O)cc1)[N+](C)(C)CC2 | > 4 mM (inactive) |
| CCn1nnc(NC(=O)c2ccccc2Br)n1 | > 4 mM (inactive) |
| C[C@]12CCC3C(CC[C@]4(O)C[C@@H](O)CC[C@]34C=O)[C@@]1(O)CCC2C1=CC(=O)OC1 (stereo not given in full) | > 4 mM (inactive) |
| Cc1ccccc1C(=O)Nn1cnnc1 | > 4 mM (inactive) |
| CSc1ccc(/C=N/n2c(C)nnc2C)cc1 | > 4 mM (inactive) |
| COC(=O)[C@@H]1OC(=O)C2OC23[C@@]1(C)CCC1[C@]2(C)C(C[C@@H](O)[C@]13C)C(C)(C)[C@H](OC(C)=O)C[C@@H]2OC(C)=O (stereo not given in full) | > 4 mM (inactive) |
| CN(C)c1nc(N)nc(-c2nc3ccccc3s2)n1 | > 4 mM (inactive) |
